From patent US20240148821A1, “PHARMACEUTICAL USE OF CYCLIC PEPTIDE COMPOUND” (CHUGAI SEIYAKU KABUSHIKI KAISHA, priority 2021, published 2024)
Numbered stars: 1 amine (or outer) side, 2 acyl side, 3 side chain; on linkers, the order of the positions; unused ones are H or OH. Bridge positions count the residues as written; N and C are the ends. Square brackets hold non-standard residues; d marks the D form. Peptide text beside a SMILES is read from it. * marks the point of attachment. hPhe(3-Cl-4-CF3) = N[C@@H](CCc1ccc(C(F)(F)F)c(Cl)c1)C(=O)O; hPhe(3-F,4-CF3) = N[C@@H](CCc1ccc(C(F)(F)F)c(F)c1)C(=O)O; Thiomorpholino(1,1-dioxo) = O=S1(=O)CCN(*)CC1; 3Oxa8azabicyclo(3.2.1)octane = C1CC2COCC1N2*; NMeAbu(4,4,4-F3) = CN[C@@H](CC(F)(F)F)C(=O)O; NMePhe(3-Me) = CN[C@@H](Cc1cccc(C)c1)C(=O)O; NMePhe(4-Me) = CN[C@@H](Cc1ccc(C)cc1)C(=O)O; NMedβ3hAla = C[C@H](CC(=O)[*:2])N(C)[*:1]; NMeGly(cPent) = CN[C@H](C(=O)O)C1CCCC1; Pro(4,4-F2) = O=C(O)[C@@H]1CC(F)(F)CN1; NMeCha = CN[C@@H](CC1CCCCC1)C(=O)O; NMeGly(cPr) = CN[C@H](C(=O)O)C1CC1; NMeChg = CN[C@H](C(=O)O)C1CCCCC1; NMeI = CC[C@H](C)[C@H](NC)C(=O)O; NMeD = CN[C@@H](CC(=O)O)C(=O)O; NMeL = CN[C@@H](CC(C)C)C(=O)O; Chg = N[C@H](C(=O)O)C1CCCCC1; NMeNle = CCCC[C@H](NC)C(=O)O; NMeV = CN[C@H](C(=O)O)C(C)C; d(β3hA) = C[C@@H](N)CC(=O)O; NMeA = CN[C@@H](C)C(=O)O; Piperidide = C1CCN(*)CC1; Pyrrolidide = C1CCN(*)C1; dNMeA = CN[C@H](C)C(=O)O; Ac5c = NC1(C(=O)O)CCCC1; Aze = O=C(O)[C@@H]1CCN1; Sar = CNCC(=O)O

tested on: Human pancreatic cancer cell line AsPC-1 (G12D mutation Kras); assay: AsPC-1 cell growth inhibition (AsPC-1 CGI); format: cell-based; settings: read-out: AsPC-1 cell growth inhibition, 50% growth inhibitory concentration (IC50 value); 96 hours, CellTiter-Glo, values classified in ranges
Description: Test compounds were serially dilated with dimethyl sulfoxide, and 200 nL was then dispensed to a U-bottom 96-well plate using Labcyte Echo. […] The cell suspension was dispensed to a. plate containing a test compound at 100 μL per well and incubated at 37° C. in a 5% carbon dioxide gas incubator. 96 hours later, 80 μL of CellTiter-Glo (Promega) was added to each well and fluorescence was measured.

`CC[C@H](C)[C@@H]1NC(=O)[C@H](CC(C)C)N(C)C(=O)C[C@@H](C)N(C)C(=O)[C@H](C2CC2)N(C)C(=O)C2(CCCC2)NC(=O)[C@@H]2CCCN2C(=O)[C@H](CCc2ccc(C(F)(F)F)c(Cl)c2)NC(=O)CN(C)C(=O)[C@H](CC2CCCCC2)N(C)C(=O)CN(C)C(=O)CN(C)C1=O` [Compound 874] (cyclo([Ac5c][NMeGly(cPr)][NMedβ3hAla][NMeL]I[Sar][Sar][NMeCha][Sar][hPhe(3-Cl-4-CF3)]P)) and `CC[C@H](C)[C@@H]1NC(=O)[C@H](CC(C)C)N(C)C(=O)C[C@@H](C(=O)N2CCS(=O)(=O)CC2)N(C)C(=O)[C@H](C2CCCCC2)N(C)C(=O)C2(CCCC2)NC(=O)[C@@H]2CCCN2C(=O)[C@H](CCc2ccc(C(F)(F)F)c(Cl)c2)NC(=O)CN(C)C(=O)[C@H](CC2CCCCC2)N(C)C(=O)CN(C)C(=O)CN(C)C1=O` [Compound 1263] ([NMeL]I[Sar][Sar][NMeCha][Sar][hPhe(3-Cl-4-CF3)]P[Ac5c][NMeChg][NMeD]-{Thiomorpholino(1,1-dioxo)}; lactam N-11) cannot be ordered by IC50: over 500 nM for the first, over 500 nM for the second.

`CC[C@H](C)[C@@H]1NC(=O)[C@H](C)N(C)C(=O)C[C@@H](C(=O)N2CCCCC2)N(C)C(=O)[C@H](C(C)C)N(C)C(=O)C2(CCCC2)NC(=O)[C@@H]2CCCN2C(=O)[C@H](CCc2ccc(C(F)(F)F)c(Cl)c2)NC(=O)[C@@H](C)N(C)C(=O)[C@H](CC2CCCCC2)N(C)C(=O)[C@@H]2CCN2C(=O)[C@H](C)N(C)C1=O` [Compound 1103] ([NMeA]I[NMeA][Aze][NMeCha][dNMeA][hPhe(3-Cl-4-CF3)]P[Ac5c][NMeV][NMeD]-Piperidide; lactam N-11) and `CC(C)C[C@H]1C(=O)N[C@@H](C2CCCCC2)C(=O)N(C)CC(=O)N(C)CC(=O)N(C)[C@@H](CC2CCCCC2)C(=O)N(C)CC(=O)N[C@@H](CCc2ccc(C(F)(F)F)c(Cl)c2)C(=O)N2CCC[C@H]2C(=O)NC2(CCCC2)C(=O)N(C)[C@@H](C(C)C)C(=O)N(C)[C@H](C(=O)N2CCCCC2)CC(=O)N1C` [Compound 281] ([NMeL][Chg][Sar][Sar][NMeCha][Sar][hPhe(3-Cl-4-CF3)]P[Ac5c][NMeV][NMeD]-Piperidide; lactam N-11) cannot be ordered by IC50: over 500 nM for the first, over 500 nM for the second.

`CC[C@H](C)[C@@H]1NC(=O)[C@H](CC(C)C)N(C)C(=O)C[C@@H](C)NC(=O)[C@H](C(C)C)N(C)C(=O)C2(CCCC2)NC(=O)[C@@H]2CCCN2C(=O)[C@H](CCc2ccc(C(F)(F)F)c(Cl)c2)NC(=O)CN(C)C(=O)[C@H](CC2CCCCC2)N(C)C(=O)[C@@H]2CCCN2C(=O)CN(C)C1=O` [Compound 1050] (cyclo([Ac5c][NMeV][d(β3hA)][NMeL]I[Sar]P[NMeCha][Sar][hPhe(3-Cl-4-CF3)]P)) and `CCCC[C@H]1C(=O)N[C@H](C)CC(=O)N(C)[C@@H](CC(C)C)C(=O)N[C@@H]([C@@H](C)CC)C(=O)N(C)CC(=O)N(C)CC(=O)N(C)[C@@H](CC2CCCCC2)C(=O)N(C)CC(=O)N[C@@H](CCc2ccc(C(F)(F)F)c(F)c2)C(=O)N2CCC[C@H]2C(=O)NC2(CCCC2)C(=O)N1C` [Compound 1518] (cyclo([Ac5c][NMeNle][d(β3hA)][NMeL]I[Sar][Sar][NMeCha][Sar][hPhe(3-F,4-CF3)]P)) cannot be ordered by IC50: over 500 nM for the first, over 500 nM for the second.

Compared with `CC[C@H](C)[C@@H]1NC(=O)[C@H](CC(C)C)N(C)C(=O)C[C@@H](C(=O)N2C3CCC2COC3)NC(=O)[C@H]([C@@H](C)CC)N(C)C(=O)C2(CCCC2)NC(=O)[C@@H]2CCCN2C(=O)[C@H](CCc2ccc(C(F)(F)F)c(Cl)c2)NC(=O)CN(C)C(=O)[C@H](CC2CCCCC2)N(C)C(=O)CN(C)C(=O)CN(C)C1=O` [Compound 1257] ([NMeL]I[Sar][Sar][NMeCha][Sar][hPhe(3-Cl-4-CF3)]P[Ac5c][NMeI]D-{3Oxa8azabicyclo(3.2.1)octane}; lactam N-11), `CC[C@H](C)[C@@H]1NC(=O)[C@H](CC(F)(F)F)N(C)C(=O)C[C@@H](C(=O)N2CCCC2)N(C)C(=O)[C@H](C2CCCCC2)N(C)C(=O)C2(CCCC2)NC(=O)[C@@H]2CC(F)(F)CN2C(=O)[C@H](CCc2ccc(C(F)(F)F)c(Cl)c2)NC(=O)CN(C)C(=O)[C@H](Cc2ccc(C)cc2)N(C)C(=O)CN(C)C(=O)CN(C)C1=O` [Compound 1245] ([NMeAbu(4,4,4-F3)]I[Sar][Sar][NMePhe(4-Me)][Sar][hPhe(3-Cl-4-CF3)][Pro(4,4-F2)][Ac5c][NMeChg][NMeD]-Pyrrolidide; lactam N-11) is lower in IC50: over 500 nM for the first, at most 20 nM for the second.

`CC[C@H](C)[C@@H]1NC(=O)[C@H](C)N(C)C(=O)C[C@@H](C)NC(=O)[C@H](C2CCCC2)N(C)C(=O)C2(CCCC2)NC(=O)[C@@H]2CCCN2C(=O)[C@H](CCc2ccc(C(F)(F)F)c(Cl)c2)NC(=O)[C@@H](C)N(C)C(=O)[C@H](Cc2cccc(C)c2)N(C)C(=O)[C@@H]2CCN2C(=O)[C@H](C)N(C)C1=O` [Compound 117] (cyclo([Ac5c][NMeGly(cPent)][d(β3hA)][NMeA]I[NMeA][Aze][NMePhe(3-Me)][dNMeA][hPhe(3-Cl-4-CF3)]P)) was tested, and the IC50 was over 500 nM.
